Measurements published in patent US6881719B2, “β-turn peptidomimetic cyclic compounds” (McGill University, priority 2000, dated 2005).

Tests used:
[1] = molecular target: T1, cell surface TrkA (4-3.6 cells, p75+ TrkA+) (Homo sapiens, UniProt P04629); assay: FACScan binding of D3-biotin to 4-3.6 cells
T1 construct: expressed in transfected cells
From the text: (§1) The 4-3.6 cells are B104 cells stably transfected with human trkA cDNA, and express equal levels of p75 and TrkA (TrkA+ p75+). For screening agents that activate or antagonize TrkC receptors, NIH3T3 fibroblasts were stably transfected with human TrkC cDNA. These cells respond to the ligand NT-3. For screening agents that activate or antagonize TrkA receptors, NIH3T3 fibroblasts were stably transfected with human TrkA cDNA. These cells respond to the ligand NGF.
(§2) FACScan binding assays: 4-3.6 cells (2×10^5) in FACScan binding buffer (PBS, 0.5% BSA, and 0.1% NaN3) were immunostained as described (Saragovi et al., 1998). Saturating anti-TrkA mAb 5C3, or anti-p75 mAb MC192, or control non-binding IgGs were added to cells for 1 hour at 4° C., in the presence or absence of D3 as competitor. Excess primary antibody was washed off, and cells were immunostained with fluorescinated goat-anti-mouse IgG secondary antibody. Cells were acquired on a FACScan and mean channel fluorescence of bell-shaped histograms were analyzed using the LYSIS II program.
FACScan analysis featuring the secondary fluorescent agent avidin-FITC was used to detect binding of D3-biotin to the cell surface (Table 1). The 4-3.6 cells (p75+TrkA+) had fluorescence approximately 4 times greater for D3-biotin than for a background control peptide-biotin.

B104 cells (p75+ TrkA-) = assay: FACScan binding of D3-biotin to B104 cells; set-up: species or system rat; conditions: D3-biotin 20 μM + D3 200 μM as competitor
p75 NGF receptor subunit = molecular target: T2, p75 NGF receptor subunit (Rattus norvegicus, UniProt P07174); assay: FACScan competition of anti-p75 mAb MC192 binding on 4-3.6 cells; conditions: mAb 1 nM; competitor 40 μM
T2 construct: B104 rat neuroblastomas express p75 receptors; endogenous in cells
T2 sequence (P07174 30-425): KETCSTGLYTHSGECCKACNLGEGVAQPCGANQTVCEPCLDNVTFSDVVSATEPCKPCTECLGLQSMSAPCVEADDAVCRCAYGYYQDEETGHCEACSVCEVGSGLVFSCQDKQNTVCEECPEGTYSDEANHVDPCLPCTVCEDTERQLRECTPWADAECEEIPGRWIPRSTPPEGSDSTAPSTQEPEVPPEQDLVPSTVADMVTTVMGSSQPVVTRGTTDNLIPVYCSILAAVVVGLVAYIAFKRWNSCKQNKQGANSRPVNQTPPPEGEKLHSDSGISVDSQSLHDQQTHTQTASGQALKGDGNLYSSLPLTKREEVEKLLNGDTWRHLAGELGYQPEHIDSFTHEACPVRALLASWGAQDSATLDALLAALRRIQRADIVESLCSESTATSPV
From the text: as §1, §2

[2] = system: embryonic rat DRG primary neuronal cultures; assay: Cell survival (MTT), primary DRG cultures; format: cell-based; conditions: 8 days;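 as to % Protection: 100% equals survival with optimal NGF at 1 nM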
Protocol: (§3) Fetal rat DRG primary cultures were established from Sprague Dawley day 17 rat embryos. All ganglia were dissected and dissociated first enzymatically with trypsin and then mechanically. Dissociated cells were cultured (10^5 cells/well) in 96 well plates pre-coated with collagen, and grown for a total of 8 days in Neuro Basal Medium containing N2 supplement (GIBCO, Toronto), antibiotics, and L-glutamine. These DRG cultures are ˜85% TrkA-expressing and are heavily dependent on TrkA signals for survival.
Primary DRG cultures: After a total of 8 days of culture with the indicated test or control ligands, cell survival were studied using the 3(4,5-Dimethylthiazolyl-2)-2,5-diphenyl tetrazolium bromide colorimetric (MTT) assay, and by microscopic observation.
(§4) Cell lines: 5,000 cells/well in protein-free media (PFHM-II, GIBCO, Toronto) containing 0.2% bovine serum albumin (BSA) (Crystalline fraction V, Sigma, St. Louis, Mo.) were seeded in 96 well plates (Falcon, Mississauga, Ontario). The cultures were untreated, or treated with the indicated test or control ligands. Cell viability was quantitated using the MTT assay after 56-72 hours of culture. […] The OD of untreated cells were subtracted. The higher optical density of untreated primary cultures is likely due to cellular heterogeneity and to endogenous production of limiting amounts of growth factors.

4-3.6 cells (p75+TrkA+) = assay: Cell survival (MTT), 4-3.6 cells; format: cell-based, rat; conditions: 72 hours;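 as to % Protection: 100% equals survival with optimal NGF at 1 nM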
From the text: as §1, §4

[3] = molecular target: T3, HEK 293 cells expressing TrkB/TrkA IgG-C2 chimeric receptor (Homo sapiens, UniProt P04629+Q16620); assay: Cell survival (MTT), HEK 293-TrkB/TrkA IgG-C2 chimera; format: cell-based; conditions: HEK 293-TrkB/TrkA chimera, 72 hours;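 as to % Protection: 100% equals survival with optimal NGF at 1 nM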
T3 construct: The IgG-C2 domain of human TrkA was generated using unique restriction sites; expressed in transfected cells
T3 sequence (P04629 299-365 limits assumed, change not shown, one chain of several): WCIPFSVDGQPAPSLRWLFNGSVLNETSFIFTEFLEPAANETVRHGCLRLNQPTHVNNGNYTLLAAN
From the text: The IgG-C2 domain of human TrkA was generated using unique restriction sites in the primers to allow exchange with the corresponding rat TrkB domain. The chimeric receptors were constructed by subcloning the human TrkA IgG-C2 domain into the corresponding restriction sites of the rat trkB cDNA reported in a previous work (Perez et al., 1995). Chimeric constructs were confirmed by sequencing, and were cloned into the pCDNA3 expression vector that contains a selection gene providing resistance to neomycin (G418, GIBCO). HEK293 cells were transfected using the lipofectamine plus method (GIBCO), selected with neomycin (0.5 mg/ml) and at least 3 independent subclones were obtained by limiting dilution techniques (293-TrkB/A-IgC2 chimera).
as §4, with “subtracted.” for “subtracted. The higher optical density of untreated primary cultures is likely due to cellular heterogeneity and to endogenous production of limiting amounts of growth factors.”

[4] = system: wild type NIH3T3 fibroblasts; assay: Cell survival (MTT), NIH wt; format: cell-based; conditions: 72 hours
From the text: as §1, §4

TrkA-ECD = molecular target: T4, TrkA-ECD (Homo sapiens, UniProt P04629); assay: ELISA and RIA binding assays of NGF•TrkA-ECD
T4 construct: pure soluble TrkA extracellular domain (TrkA-ECD) produced in baculovirus; made in house
T4 sequence (P04629 33-423 limits assumed): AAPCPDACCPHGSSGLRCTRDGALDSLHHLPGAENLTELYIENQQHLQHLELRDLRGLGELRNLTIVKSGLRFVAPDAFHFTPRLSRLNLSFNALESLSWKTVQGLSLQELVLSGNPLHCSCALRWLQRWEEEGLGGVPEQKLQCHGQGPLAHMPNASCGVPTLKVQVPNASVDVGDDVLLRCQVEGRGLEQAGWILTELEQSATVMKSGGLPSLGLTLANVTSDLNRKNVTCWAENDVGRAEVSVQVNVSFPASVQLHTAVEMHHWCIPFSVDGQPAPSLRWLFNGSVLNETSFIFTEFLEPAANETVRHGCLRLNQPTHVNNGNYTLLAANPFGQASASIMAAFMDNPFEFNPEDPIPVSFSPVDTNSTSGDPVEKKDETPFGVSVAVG

DRG neuronal cultures = assay: Morphometric analysis of DRG dissociated neurons (neurite outgrowth); format: cell-based, rat; conditions: 8 days
Protocol: In FIG. 1 primary neuronal DRG cultures were treated as indicated for 8 days, and cell differentiation was studied morphometrically. Magnification 60×. Pictures representative of 3 independent experiments.
as §3
The effect of D3 on TrkA-mediated cellular differentiation was assessed using two independent assays: morphometric analysis of DRG dissociated neurons and induction of ChAT activity in septal neuronal cultures.

T1 sequence (P04629 33-796): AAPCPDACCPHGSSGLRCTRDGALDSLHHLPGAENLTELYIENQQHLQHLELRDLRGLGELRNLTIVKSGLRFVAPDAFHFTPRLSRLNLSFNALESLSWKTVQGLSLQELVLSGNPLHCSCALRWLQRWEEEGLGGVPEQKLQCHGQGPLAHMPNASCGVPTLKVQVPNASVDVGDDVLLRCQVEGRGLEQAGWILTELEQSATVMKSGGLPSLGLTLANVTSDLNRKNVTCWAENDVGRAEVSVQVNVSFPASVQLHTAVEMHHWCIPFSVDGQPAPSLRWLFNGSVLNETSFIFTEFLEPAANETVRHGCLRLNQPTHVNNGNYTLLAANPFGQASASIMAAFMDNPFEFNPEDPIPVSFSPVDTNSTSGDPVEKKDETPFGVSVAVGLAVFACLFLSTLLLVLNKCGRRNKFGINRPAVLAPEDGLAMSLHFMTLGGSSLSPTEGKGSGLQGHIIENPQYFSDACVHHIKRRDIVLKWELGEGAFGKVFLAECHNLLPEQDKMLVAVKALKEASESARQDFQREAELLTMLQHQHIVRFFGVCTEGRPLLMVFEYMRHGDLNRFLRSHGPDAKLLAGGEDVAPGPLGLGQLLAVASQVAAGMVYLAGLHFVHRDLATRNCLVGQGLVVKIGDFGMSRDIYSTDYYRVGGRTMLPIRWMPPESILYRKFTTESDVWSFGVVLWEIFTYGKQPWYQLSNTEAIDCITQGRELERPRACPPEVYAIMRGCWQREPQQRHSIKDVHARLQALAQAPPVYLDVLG

competition of D3-biotin binding ([1]; 10-fold molar excess of D3): abolished binding of D3-biotin
MCF (mean channel fluorescence) ([1]; D3-biotin 20 μM + D3 200 μM as competitor): 17 ± 7
% Maximal binding of mAb MC192 (p75 NGF receptor subunit): 101 ± 2%
blocking of NGF•TrkA-ECD interactions (TrkA-ECD): did not substantially block
Compound: NCCCC[C@@H]1NC(=O)[C@H](CCC(=O)O)NC(=O)c2cc([N+](=O)[O-])ccc2OCCC(C(=O)NCC(=O)O)NC1=O (stereo partly shown) [D3, EKHse-G-OH]
MCF (mean channel fluorescence) (B104 cells (p75+ TrkA-)): 11 ± 2
% Protection ([2]; compound 10 μM + NGF 20 pM): 48 ± 3%
Optical Density ([2]; compound 10 μM + NGF 20 pM): 471 ± 28
% Protection ([2]; compound 10 μM + NGF 500 pM): 84 ± 3%
Optical Density ([2]; compound 10 μM + NGF 500 pM): 603 ± 26
% Protection ([2]; compound 10 μM + NGF 1 nM): 120 ± 7%
Optical Density ([2]; compound 10 μM + NGF 1 nM): 977 ± 38
% Protection ([2]; compound 10 μM alone): 38 ± 2%
Optical Density ([2]; compound 10 μM alone): 405 ± 22
% Protection (4-3.6 cells (p75+TrkA+); compound 10 μM + 10 pM NGF): 55 ± 3%
Optical Density (4-3.6 cells (p75+TrkA+); compound 10 μM + 10 pM NGF): 255 ± 14
% Protection (4-3.6 cells (p75+TrkA+); compound 10 μM alone): 8 ± 2%
Optical Density (4-3.6 cells (p75+TrkA+); compound 10 μM alone): 95 ± 9
% Protection ([3]; compound 10 μM + 10 pM NGF): 42 ± 5%
Optical Density ([3]; compound 10 μM + 10 pM NGF): 165 ± 11
% Protection ([3]; compound 10 μM alone): 9 ± 3%
Optical Density ([3]; compound 10 μM alone): 69 ± 7
NIH wt % Protection ([4]; agent 10 μM + 10 pM NGF): 0 ± 3%
NIH wt % Protection ([4]; agent 10 μM alone): −3 ± 5%
neurite outgrowth (DRG neuronal cultures; D3 alone): undergo neurite outgrowth in response to D3
potentiation of NGF effect on neurite outgrowth (DRG neuronal cultures; D3 with NGF): potentiates the effect of NGF
